The values below come from patent US6197775A, “Phosphonate nucleotide derivatives” (Mitsubishi Chemical Corporation, priority 1995, dated 2001).

One data set concerns Hepatitis B virus (HBV). The data set is described as follows: Activity for inhibiting proliferation of Hepatitis B virus (HBV): inhibition of HBV-DNA synthesis in HB611 cells. It counts as cell-based. As to conditions: read-out: Inhibitory ratio against HBV-DNA synthesis (%). The protocol:
Activity for inhibiting proliferation of Hepatitis B virus (HBV)
Inhibitory activity of the compounds of the present invention against proliferation of HBV was measured by a known method (K. Ueda, et al., VIROLOGY, 169, 213-216 (1989)).
(§1) 2×10^4 HB611 cells (recombinant human liver cancer cells producing HBV) were cultured in Dulbecco's ME medium containing 10% fetal bovine serum, streptomycin (100 μg/ml), penicillin (100 IU/ml), and Geneteicin (trade name of an antibiotic sold by Life Technologies, 0.2 mg/ml) at 37° C. The medium was changed with fresh medium on the second day and fifth day of the culture, and then changed with a medium containing a test compound at a final concentration of 10 μM or 1 μM on the 8th, 11th and 14th days of the culture. DNA of the cells were collected on the 17th day of the culture. Amounts of HBV-DNA in the cells were measured by Southern blotting method and inhibitory rates against HBV-DNA synthesis were determined. Concentrations of compounds required for 50% death of HB611 cells were determined by cell titer 96 (trademark of Promega Corp.). As references, the same test was carried out by using PMEA and its bis(pivaloyloxymethyl ester). Compound Nos. in Table 2 correspond to those in Table 1.

For a further data set, the system named is HB611 cells. The data set is described as follows: Cytotoxicity for HB611 cells (cell titer 96). The format is cell-based, human. To be noted: 50% death of HB611 cells; read-out: 50% Cytotoxic concentration for HB611 cells. The protocol:
as §1

Data set [1] has as its system polychromatic erythrocytes (bone marrow). The data set is described as follows: Micronucleus test using mice. It counts as in vivo. On the procedure:
Micronucleus test using mice
A test compound was administered to mice at a dose of 1,000 or 2,000 mg/kg, and bone marrow smear preparations were prepared at 24, 30, 48, and 72 hours after the administration. For a negative control group (0.5% aqueous solution of tragacanth gum) and a positive control group (2 mg/kg of mitomycin C (MMC) was administered as a single intraperitoneal administration), bone marrow smears were prepared at 24 hours after the administration. The samples were stained by the Giemsa's staining method in an ordinary manner, and then 2,000 polychromatic erythrocytes per animal were examined to determine the number of cells having micronuclei and frequency of appearance of micronuclei (%). As statistic analysis, significant difference test was carried out for polychromatic erythrocytes containing micronuclei between the negative control group and the group administered with a test compound according to the stochastic method of Kasternbaum and Bowman.
For comparison, the same test was carried out by using an unsubstituted 6-amino derivative, i.e., 9-[2-[bis(2,2,2-trifluoroethyl)phosphonylmethoxy]ethyl]-2,6-diaminopurine (abbreviated as "DAP"), and PMEA bis(pivaloyloxymethyl ester). Compound Nos. in Table 4 correspond to those in Table 1.

The nature of data set [2]: Cytotoxicity for HB611 cells (cell titer 96). The format is cell-based, human. As to conditions: human; 50% death of HB611 cells; read-out: 50% Cytotoxic concentration for HB611 cells. The protocol:
as §1

The test system of a further data set is HBV. The data set is described as follows: Inhibitory effect on HBV proliferation in a serum of a rat orally administered with a test compound (HB611 cells cultured with 5% serum). It counts as cell-based, Hepatitis B virus. As to conditions: 5% serum in medium. On the procedure:
Inhibitory effect on HBV proliferation in a serum of a rat orally administered with a test compound
A group consisting of three rats was orally administered with a test compound at a dose of 1 g/kg or 0.3 g/kg by a single oral administration. Blood of the rats was collected one hour after the administration and serum samples were prepared.
2×10^4 HB611 cells were cultured in Dulbecco's ME medium containing 10% fetal bovine serum, streptomycin (100 μg/ml), penicillin (100 IU/ml) and Geneteicin (0.2 mg/ml) at 37° C. The medium was changed with fresh medium on the second day and fifth day of the culture, and then changed with a medium containing 5% of the above serum (the serum of the rat orally administered with a test compound) on the 8th, 11th and 14th days of the culture. DNA of the cells were collected on the 17th day of the culture. Amounts of HBV-DNA in the cells were measured by Southern blotting method, and inhibitory ratios against […] synthesis in the cells were determined. As a reference, the same test was carried out by using PMEA. Compound Nos. in Table 3 correspond to those in Table 1.

In data set [3] the test system is herpes simplex viruses type-1 (HSV-1). To be noted: literature (Yokota et al.; Votruba et al.); cited from earlier work.
In data set [4] the test system is herpes simplex viruses type-2 (HSV-2). As to conditions: literature (Yokota et al.; Votruba et al.); cited from earlier work.
Data set [5] has as its system human immunodeficiency virus (HIV). As to conditions: literature (Yokota et al.; Votruba et al.); cited from earlier work.
Data set [6] deals with human hepatitis B virus (HBV). To be noted: literature (Yokota et al.; Votruba et al.); cited from earlier work.
The mark [7] stands for this setting: 408 h, 1 μM, HB611 cells, DNA collected on 17th day.
Where [8] appears, read: 408 h, 10 μM, HB611 cells, DNA collected on 17th day.
[9] abbreviates: serum of rats 1 h after single oral dose of 0.3 g/kg.

Read-outs that look alike come from different tables or passages of the source.

As to `CC(C)(C)C(=O)OCOP(=O)(COCCn1cnc2c(N)ncnc21)OCOC(=O)C(C)(C)C` [PMEA ester, PMEA bis(pivaloyloxymethyl ester), reference compound], in the data set on Hepatitis B virus (HBV) (HB611, 408 h), the inhibition at 1 µM stood at 63.7% and the inhibition at 10 µM is 90%. In addition, the CC50 in the data set with HB611 cells came to 18 µM. In data set [1] (mice, 1,000 or 2,000 mg/kg, bone marrow at 24, 30, 48, and 72 hours), the “Test result (micronucleus test)” value is listed as “Positive”.

Regarding `CN(C)c1nc(N)nc2c1ncn2CCOCP(=O)(OCC(F)(F)F)OCC(F)(F)F` [Compound 11, 2-amino-9-[2-[bis(2,2,2-trifluoroethyl)phosphonylmethoxy]ethyl]-6-(dimethylamino)purine], in the data set on Hepatitis B virus (HBV) (setting [7]), the inhibition at 1 µM came to 92%. Further, the inhibition at 10 µM with Hepatitis B virus (HBV) (setting [8]) amounted to 100%. In addition, the CC50 in [2] is above 1 mM. Besides, the “Inhibitory ratio against HBV-DNA synthesis (%)” value (from here on “Inhibitory ratio … (%)”) in the data set with HBV (setting [9]) came to 95.6%. Also, in data set [1] (mouse, in vivo), the “Test result (micronucleus test)” value is “Negative”.

Regarding `CN(c1ccccc1)c1nc(N)nc2c1ncn2CCOCP(=O)(OCC(F)(F)F)OCC(F)(F)F` [Compound 621, 2-amino-9-[2-[bis(2,2,2-trifluoroethyl)phosphonyl-methoxy]ethyl]-6-(methylphenylamino)purine], the inhibition at 1 µM in the data set on Hepatitis B virus (HBV) (setting [7]) is 68%. In data set [2], the CC50 is above 1 mM.

As for `CCCCN(C)c1nc(N)nc2c1ncn2CCOCP(=O)(OCC(F)(F)F)OCC(F)(F)F` [Compound 15], in the data set on Hepatitis B virus (HBV) (setting [7]), the inhibition at 1 µM was determined as 86.7%. For the same compound, in data set [2], the CC50 was above 1 mM.

Turning to `CCN(CC)c1nc(N)nc2c1ncn2CCOCP(=O)(OCC(F)(F)F)OCC(F)(F)F` [Compound 16, 2-amino-9-[2-[bis(2,2,2-trifluoroethyl)phosphonylmethoxy]-ethyl]-6-(diethylamino)purine], the inhibition at 10 µM with Hepatitis B virus (HBV) (setting [8]) is 100%. The CC50 in [2] was above 1 mM.

Regarding `Nc1nc(N)c2ncn(CCOCP(=O)(OCC(F)(F)F)OCC(F)(F)F)c2n1` [DAP, 9-[2-[bis(2,2,2-trifluoroethyl)phosphonylmethoxy]ethyl]-2,6-diaminopurine, reference compound], in [1] (mouse, in vivo), the “Test result (micronucleus test)” value was “Positive”.

For the compound `CN(C)c1nc(N)nc2c1nnn2CCOCP(=O)(OCC(F)(F)F)OCC(F)(F)F` [Compound 21, 2-amino-8-aza-9-[2-[bis(2,2,2-trifluoroethyl)phosphonyl-methoxy]ethyl]-6-(dimethylamino)purine], the inhibition at 10 µM with Hepatitis B virus (HBV) (setting [8]) came to 100%. Moreover, the CC50 in [2] was above 1 mM.

Take `Nc1nc(N)c2ncn(CCOCP(=O)(O)O)c2n1` [PMDAP, 9-(2-phosphonylmethoxy)ethyl-2,6-diaminopurine]: in data set [3], the “effectiveness against HSV-1” value is recorded as “effective”. Besides, the “effectiveness against HSV-2” value in data set [4] is reported as “effective”. Also, in data set [5], the “effectiveness against HIV” value is given as “effective”. Also, the “effectiveness against HBV” value in [6] is “effective”.

Take `Nc1ncnc2c1ncn2CCOCP(=O)(O)O` [PMEA, 9-(2-phosphonylmethoxy)ethyladenine]: the inhibition at 10 µM with Hepatitis B virus (HBV) (HB611, 408 h) was 83%. The “Inhibitory ratio … (%)” value in the data set with HBV (serum of rats 1 h after single oral dose of 1 g/kg) was 35.5%. Further, the “effectiveness against HSV-1” value in [3] is given as “effective”. Further, the “effectiveness against HSV-2” value in [4] is reported as “effective”. Besides, the “effectiveness against HIV” value in data set [5] is recorded as “effective”. For the same compound, the “effectiveness against HBV” value in [6] is “effective”.

Regarding `CCCN(C)c1nc(N)nc2c1ncn2CCOCP(=O)(OCC(F)(F)F)OCC(F)(F)F` [Compound 13, 2-amino-9-[2-[bis(2,2,2-trifluoroethyl)phosphonylmethoxy]-ethyl]-6-(methyl-1-propylamino)purine], the inhibition at 10 µM in the data set on Hepatitis B virus (HBV) (setting [8]) worked out at 100%. For the same compound, in [2], the CC50 was above 1 mM. Also, the “Inhibitory ratio … (%)” value in the data set on HBV (setting [9]) turned out to be 100%. In addition, the “Test result (micronucleus test)” value in [1] (mouse, in vivo) was “Negative”.
